Key:
[1] = Inhibition of Escherichia coli DXR
Plasmodium falciparum = test: Antimalarial activity against Plasmodium falciparum 3D7 in infected human erythrocytes after 48 hrs; assay type: functional, organism-based; details: 3D7, 48 h

Row | Compound | IC50 [1] [µM] | IC50 (Plasmodium falciparum) [µM]
1 | O=C(NO)OCCP(=O)(O)O | > 3 | –
2 | CC(=O)N(O)CCCP(=O)(OCOC(=O)C(C)(C)C)OCOC(=O)C(C)(C)C | > 30 | 0.099
3 | CC(=O)N(O)COCP(=O)(O)O | 0.087 | 0.36
4 | O=CN(O)COCP(=O)(O)O | 1.11 | 4.9
5 | CN(O)C(=O)CCCP(=O)(O)O | 0.097 | 0.98
6 | O=C(COCP(=O)(O)O)NO | > 3 | –
7 | O=CN(O)CCCP(=O)(O)O [FOSMIDOMYCIN] | 0.054 | 1.2
8 | CN(O)C(=O)COCP(=O)(OCOC(=O)C(C)(C)C)OCOC(=O)C(C)(C)C [BIS(PIVALOYLOXYMETHYL)ESTER] | > 30 | 0.051
9 | CN(O)C(=O)OCCP(=O)(O)O | 3 | –
10 | CN(O)C(=O)COCP(=O)(O)O | 0.072 | 0.24
11 | CC(=O)N(O)CCCP(=O)(O)O [FR-900098] | 0.062 | 0.43

— ChEMBL document CHEMBL1143891, “Synthesis of beta- and gamma-oxa isosteres of fosmidomycin and FR900098 as antimalarial candidates” (Bioorg Med Chem, 2008)
